Test results published in ChEMBL document CHEMBL1148994, “On the active principles of the spurge family, X. Skin irritants, cocarcinogens, and cryptic cocarcinogens from the latex of the manchineel tree” (J Nat Prod, 1984).

How the values were obtained:
Mus musculus [1] = species: Mus musculus; test: Carcinogenic activity in NMRI mouse assessed as number of tumor bearing mouse at 12.2 ug for 34 weeks measured after 12 weeks; assay type: ADME, organism-based; settings: in vivo, 2016 h
Mus musculus [2] = species: Mus musculus; test: Toxicity in NMRI mouse assessed as drug level required for irritant activity in 50% animal assessed per ear; assay type: organism-based; settings: in vivo
[3] = Toxicity in NMRI mouse assessed as survival rate at 12.2 ug for 34 weeks measured after 24 weeks; assay type: organism-based; settings: in vivo, read-out: Activity
Mus musculus [4] = species: Mus musculus; test: Carcinogenic activity in NMRI mouse assessed as number of tumors per mouse at 12.2 ug for 34 weeks measured after 12 weeks; assay type: ADME, organism-based; settings: in vivo, 2016 h
[5] = Toxicity in NMRI mouse assessed as survival rate at 3.1 ug for 48 weeks measured after 24 weeks; assay type: organism-based; settings: in vivo, read-out: Activity
[6] = Toxicity in NMRI mouse back skin assessed as survival rate at 11.7 ug for 48 weeks measured after 24 weeks; assay type: organism-based, Zone of skin; settings: in vivo, topical or ocular, read-out: Activity

Compound | Activity (Mus musculus [1]) | Activity (Mus musculus [2]) | survival at 4032 h [3] | Activity (Mus musculus [4]) | survival at 4032 h [5] | survival at 4032 h [6]
CCCCCCCCC/C=C/C=C/C=C/C(=O)O[C@@]12C[C@@H](C)[C@@]3(O)[C@H]([C@@H]1C2(C)C)[C@@H]1O[C@]1(CO)[C@@H](O)[C@]1(O)C(=O)C(C)=C[C@H]13 [MANCINELLIN] | Not Active | 0.15 µg | 100% | Not Active | – | –
CCCCCCCCCCCCCC(=O)O[C@@H]1[C@@H](C)[C@@]2(O)[C@@H](C=C(CO)C[C@]3(O)C(=O)C(C)=C[C@@H]23)[C@@H]2C(C)(C)[C@]12OC(C)=O [TETRADECANOYL PHORBOL ACETATE] | – | 0.01 µg | – | – | 96% | –
C=C(C)[C@]12C[C@@H](C)[C@@]34O[C@](/C=C/C=C/CCCCCCCCC)(O[C@@H]1[C@@H]3[C@@H]1O[C@]1(CO)[C@@H](O)[C@]1(O)C(=O)C(C)=C[C@H]14)O2 | – | – | – | – | 96% | 96%
